Reference: patent publication US20110009628A1, “Compounds and Compositions for Modulating Lipid Levels and Methods of Preparing Same” (priority 2009, published 2011)
Structures can show the parent of a compound that is named as a salt.

Columns and labels:
[1] = test system: LDLR mRNA expression in HepG2 cells; assay: LDLR mRNA expression in HepG2 cells, Compounds 162 and 163, real-time RT-PCR (Example 13); type: cell-based, human; conditions: FIGS. 6A and 6B
Protocol: In FIG. 6A HepG2 cells were exposed to Compounds 162 and 163 at the indicated concentrations (x-axis) for 24 h and plotted against normalized LDLR mRNA levels (fold of control in absence of compound). In FIG. 6B, HepG2 cells were treated with 20 μM of each compound for the indicted times (x-axis) and plotted against normalized LDLR mRNA levels (fold of control at 24 h).
The time- and dose-dependent effects of the enantiomers of Compound 127 (Compounds 162 and 163) on LDLR mRNA expression were examined using quantitative real-time RT-PCR assays (FIGS. 6A and 6B). HepG2 cells were treated with Compound 162 and Compound 163 at indicated concentrations for various times. Total RNA was isolated and […] was used to generate cDNA in a reaction containing random primers and M-MLV at 37° C. for 1 h in a volume of 25 μL. Real-time PCR was performed on the cDNA using MCEP REALPLEX 2 SYSTEM (Eppendorf) and Universal MasterMix (Applied Biosystems). Human LDLR and GAPDH Pre-Developed TaqMan Assay Reagents (Applied Biosystems) were used to assess the levels of mRNA expressions in HepG2. The levels of LDLR mRNA were normalized to that of GAPDH. Each RNA samples was assayed in triplicate. The fold activity was calculated by dividing mRNA abundance in compound treated cells with that of control.

[2] = test system: LDLR protein expression in HepG2 cells; assay: Western blot of LDLR protein in HepG2 cells, Compounds 162 and 163; type: cell-based, human; conditions: 20 μM, 16 or 24 hours, FIG. 7
Protocol: (§1) FIG. 7 is a Western blot analysis of LDLR and PCSK9 expression in HepG2 cells. HepG2 cells seeded in 12-well culture plates were cultured in 0.5% FBS MEM overnight. Compounds 162 and 163 at 20 μM were added to cells for the indicated times. Untreated and treated cells were harvested at the same indicated time points. Total cell lysates were isolated and 50 μg per sample was analyzed for LDLR and PCSK9 protein abundance by western blotting. The membrane was reprobed with anti-actin antibody to examine the equal loading of cell lysates.
Chicken anti-LDLR was purchased from Abcam. HepG2 cells cultured in 60-mm dishes were incubated overnight in medium containing 0.5% fetal bovine serum prior to the addition of compounds at 20 μM concentration. After 16 or 24 hours of treatment, total cell lysate was isolated and 50 μg of protein was separated on SDS-PAGE and transferred to nitrocellulose membrane for immunoblotting with anti-LDLR.

[3] = test system: PCSK9 protein expression in HepG2 cells; assay: Western blot of PCSK9 protein in HepG2 cells, Compounds 162 and 163; type: cell-based, human; conditions: 20 μM, time-dependent, FIG. 7
Protocol: as §1
Recent studies have identified the liver secreted serine protease PCSK9 (proprotein convertase subtilisin type 9) as a natural inhibitor of LDLR protein expression that degrades hepatic LDLR protein, thus increasing circulating LDL-C levels.

in vivo = assay: in vivo; set-up: species or system Golden Syrian hamsters; conditions: hamster, po
Protocol: For testing the efficacy of Compound 141 (phosphate salt of Compound 127) or its enantiomers (Compound 162/Compound 163) the following suspension formulation procedure was developed to make 100 ml of Compound 141 in suspension at 10 mg/ml concentration in 0.1 M tartaric buffer pH. 3 containing 0.5% hydroxypropylcellulose H-type (HPC-H):
Step 1: 1.50 g L-(+)-tartaric acid was dissolved in 100 mL water to prepare a tartaric acid solution. The solution was adjusted to pH 3 with 1.2 mL 5N NaOH solution to provide the tartaric acid buffer (100 mM). Step 2: 0.5 g HPC-H powder was added to 10 mL tartaric acid buffer (100 mM) at 50° C. The slurry was stirred for 30 minutes, and then diluted with 90 mL tartaric acid buffer (100 mM) at room temperature to provide 0.5% HPC-H. Agitation was continued until all particles were dissolved and the solution was completely free of gels. Step 3: 1.20 g Compound 141 (or Compound 162 or Compound 163) and 1.20 g mannitol were mixed and ground through a 120 mesh sieve, then the mixture was ground slightly again. The mixture was dispersed in 100 mL 0.5% HPC-H-L-(+)-Tartaric acid buffer (pH=3), then stirred until the drug dispersed evenly. The final pH was 2.6. All the above procedures were completed at room temperature (˜25° C.). The final concentration of Compound 141 was 10 mg/ml after correction of the salt weight.
The pharmacokinetic profile and bioavailability of Compound 141 (phosphate salt of Compound 127) in male Wistar rats following single intravenous (iv) and oral administration (p.o.) were measured according to the procedures of Example 4 and are summarized in Table 11. The pharmacokinetic profile of Compound 162 in male Golden Syrian masters following oral administration (pox) is summarized in Table 12.

[4] = test system: LDLR mRNA expression in HepG2 cells; assay: LDLR mRNA expression in HepG2 cells, simvastatin versus compound 91 (Example 10); type: cell-based, human; conditions: 24 hours, FIG. 4A
Protocol: (§2) In yet another experiment, HepG2 cells were treated with various compounds for 24 hours at the indicated doses. Total RNA was isolated and 2 μg was used to generate cDNA in a reaction containing random primers and M-MLV at 37° C. for 1 hour in a volume of 25 μL. Real-time PCR was performed on the cDNA using MCEP REALPLEX 2 SYSTEM (Eppendorf) and Universal MasterMix (Applied Biosystems). Human LDLR and GAPDH Pre-Developed TaqMan Assay Reagents (Applied Biosystems) were used to assess the levels of mRNA expressions in HepG2. The levels of LDLR mRNA were normalized to that of GAPDH. Each RNA samples was assayed in triplicate. The abundance of LDLR mRNA in untreated cells was defined as 1, and the amounts of LDLR mRNA from compound-treated cells were plotted relative to that value in FIG. 2B. The data shown are mean±s.d.
(§3) Total RNA was harvested for quantitative real-time RT-PCR analysis using method described in Examples 5B. The fold activity was derived by dividing the amount of normalized LDLR or PCSK9 mRNA in compound-treated cells over the amount of LDLR or PCSK9 mRNA in untreated control cells.

[5] = test system: PCSK9 mRNA expression in HepG2 cells; assay: PCSK9 mRNA expression in HepG2 cells, simvastatin versus compound 91 (Example 10); type: cell-based, human; conditions: 24 hours, FIG. 4B
Protocol: as §2, §3

[6] = test system: intracellular triglyceride in HepG2 cells; assay: Reduction of intracellular triglyceride in HepG2 cells (Example 8); type: cell-based, human; conditions: B, compound dose ≦40 μM
Text: Berberine chloride was used for comparison. The amount of TG in untreated control cells was defined as 100% and the amounts of TG in compound-treated cells were divided to that value.

[7] = test system: LDLR mRNA expression in HepG2 cells; assay: LDLR mRNA expression in HepG2 cells, quantitative real-time RT-PCR (Example 7); type: cell-based, human; conditions: dose less than or equal to 10 μM, 24 hours
In short: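 LDLR mRNA quantified by TaqMan real-time PCR in triplicate, normalized to GAPDH and expressed relative to untreated cells set at 1 (mean±s.d.).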

Compound	LDLR mRNA expression [1]	LDLR mRNA and protein expression [2]	PCSK9 cellular levels [3]	pharmacokinetic properties and bioavailability, in words (in vivo)	LDLR mRNA expression [4]	PCSK9 mRNA expression [5]	Activity on reduction of cellular TG accumulation (% of control) [6]	Activity on LDLR mRNA expression (Fold of control) [7]
COc1cc2c(cc1OC)C1Cc3ccc(OC)c(OS(=O)(=O)c4cccc(F)c4)c3CN1CC2 (single isomer, unassigned) [Compound 163, 2,3,10-Trimethoxy-5,6,7,8,13,13a-hexahydroisoquinolin[2,1-b]isoquinolin-9-yl 3-fluorobenzenesulfonate phosphate Salt (Enantiomer having negative optical rotation)]	upregulate LDLR mRNA expression	significantly enhance	greatly decreased	excellent pharmacokinetic properties and good bioavailability	–	–	–	–
COc1cc2c(cc1OC)C1Cc3ccc(OC)c(OS(=O)(=O)c4ccccc4)c3CN1CC2 (centres unmarked) [Compound 91, 2,3,10-trimethoxy-5,6,7,8,13,13a-hexahydroisoquinolino[2,1-b]isoquinolin-9-yl benzenesulfonate]	–	–	–	–	dose-dependently increases	inhibits	71.17 ± 2.23 % of control	3.77 ± 0.20 Fold of control
